Results reported in ChEMBL document CHEMBL5131473, “One-pot synthesis of oxoaporphines as potent antitumor agents and investigation of their mechanisms of actions” (Eur J Med Chem, 2022).
Active and inactive are the calls of the source. The calls are words filed in the database; no cut-off is given here.

Tests used:
T-24 [1] = test: Induction of apoptosis in human T24 cells assessed as viable cells at 20 uM incubated for 24 hrs by Annexin-V/PI staining based flow cytometry analysis (reference value: 94.3 %); format: functional; settings: read-out: Activity
T-24 [2] = test: Induction of mitochondrial mediated apoptosis in human T24 cells assessed as increase in Bak protein expression at 10 to 15 uM incubated for 24 hrs by Western blotting analysis; format: functional, cell-based; settings: dose 10-15 µM
T-24 [3] = test: Induction of mitochondrial membrane potential dysfunction in human T24 cells assessed as mitochondrial fragment condensation at 10 to 15 uM by mito-tracker green dye based fluorescence microscopy; format: functional, cell-based; settings: dose 10-15 µM
T-24 [4] = test: Induction of DNA damage in human T24 cells assessed as increase in gamma H2AX expression at 10 to 15 uM incubated for 24 hrs by Western blot analysis; format: functional, cell-based; settings: dose 10-15 µM
T-24 [5] = test: Induction of mitochondrial membrane potential dysfunction in human T24 cells assessed as change in morphology at 10 to 15 uM by Mitotracker green dye based fluorescence microscopy; format: functional, cell-based; settings: dose 10-15 µM
T-24 [6] = test: Induction of cell cycle arrest in human T24 cells assessed as accumulation of cells at S phase at 10 uM incubated for 24 hrs by propidium iodide/RNase A staining based flow cytometry analysis (reference value: 42.47 %); format: functional
T-24 [7] = test: Induction of DNA damage in human T24 cells assessed as DNA strand breakage by measuring comet formation at 10 uM incubated for 24 hrs by comet assay; format: functional, cell-based
T-24 [8] = test: Induction of cell cycle arrest in human T24 cells assessed as accumulation of cells at G2/M phase at 10 uM incubated for 24 hrs by propidium iodide/RNase A staining based flow cytometry analysis (reference value: 5.82 %); format: functional
T-24 [9] = test: Induction of apoptosis in human T24 cells assessed as early apoptotic cells at 10 uM incubated for 24 hrs by Annexin-V/PI staining based flow cytometry analysis (reference value: 3.27 %); format: functional
T-24 [10] = test: Induction of Ca2+ production in human T24 cells assessed as increase in intracellular Ca2+ concentration at 10 uM by Fluo3-AM staining based fluorescence microscopic method; format: functional, cell-based
T-24 [11] = test: Induction of apoptosis in human T24 cells assessed as early apoptotic cells at 15 uM incubated for 24 hrs by Annexin-V/PI staining based flow cytometry analysis (reference value: 3.27 %); format: functional
T-24 [12] = test: Induction of apoptosis in human T24 cells assessed as increase in caspase 3 activity at 10 uM (Rvb= 3.1%); format: functional
T-24 [13] = test: Cytotoxicity against human T24 cells assessed as decrease in cell viability at 10 uM by MTT assay; format: functional, cell-based; settings: TDE = time-dependent effect
T-24 [14] = test: Induction of mitochondrial membrane potential dysfunction in human T24 cells assessed as nuclear condensation at 10 to 15 uM by mito-tracker green dye based fluorescence microscopy; format: functional, cell-based; settings: dose 10-15 µM
T-24 [15] = test: Induction of mitochondrial Ca2+ production in human T24 cells assessed as increase in intracellular Ca2+ concentration at 10 uM by Rhod2-AM staining based fluorescence microscopic method; format: functional, cell-based
T-24 [16] = test: Induction of apoptosis in human T24 cells assessed as necrotic cells at 1 uM incubated for 24 hrs by Annexin-V/PI staining based flow cytometry analysis (reference value: 1.92 %); format: functional
T-24 [17] = test: Cytotoxicity against human T24 cells assessed as decrease in cell viability at 0.5 uM by MTT assay; format: functional, cell-based; settings: TDE = time-dependent effect
T-24 [18] = test: Induction of DNA damage in human T24 cells assessed as increase in […] p53 expression at 0.5 to 1 uM incubated for 24 hrs by Western blot analysis; format: functional, cell-based; settings: dose 0.5-1 µM
T-24 [19] = test: Induction of mitochondrial mediated apoptosis in human T24 cells assessed as increase in Bak protein expression at 0.5 to 1 uM incubated for 24 hrs by Western blotting analysis; format: functional, cell-based; settings: dose 0.5-1 µM
T-24 [20] = test: Induction of cell cycle arrest in human T24 cells assessed as accumulation of cells at G2/M phase at 0.5 uM incubated for 24 hrs by propidium iodide/RNase A staining based flow cytometry analysis (reference value: 5.82 %); format: functional
[21] = Toxicity in human WI-38 cells assessed as wound closure at 0.25 uM measured after 24 hrs by fluorescence microscopy based wound healing assay; format: cell-based; settings: wi-38, 24 h
T-24 [22] = test: Induction of mitochondrial Ca2+ production in human T24 cells assessed as increase in intracellular Ca2+ concentration at 0.5 uM by Rhod2-AM staining based fluorescence microscopic method; format: functional, cell-based
T-24 [23] = test: Induction of apoptosis in human T24 cells assessed as increase in caspase 3 activity at 1 uM (Rvb= 3.1%); format: functional
T-24 [24] = test: Induction of Ca2+ production in human T24 cells assessed as increase in intracellular Ca2+ concentration at 0.5 uM by Fluo3-AM staining based fluorescence microscopic method; format: functional, cell-based
T-24 [25] = test: Induction of ROS generation in human T24 cells at 2 uM by fluorescence microscopy; format: functional, cell-based
T-24 [26] = test: Induction of mitochondrial membrane potential dysfunction in human T24 cells assessed as mitochondrial fragment condensation at 2 to 4 uM by mito-tracker green dye based fluorescence microscopy; format: functional, cell-based; settings: dose 2-4 µM
T-24 [27] = test: Induction of mitochondrial ROS generation in human T24 cells at 2 uM measured after 24 hrs by DCFH-DA staining based confocal microscopy method; format: functional, cell-based
T-24 [28] = test: Cytotoxicity against human T24 cells assessed as decrease in cell viability at 2 uM by MTT assay; format: toxicity, cell-based; settings: t-24, 72 h, TDE = time-dependent effect
T-24 [29] = test: Induction of cell cycle arrest in human T24 cells assessed as upregulation of Cyclin E expression at 2 to 4 uM incubated for 24 hrs by chemiluminescence based Western blotting analysis; format: functional; settings: dose 2-4 µM
[30] = Toxicity in human WI-38 cells assessed as wound closure at 1 uM measured after 24 hrs by fluorescence microscopy based wound healing assay; format: cell-based; settings: wi-38, 24 h
T-24 [31] = test: Induction of apoptosis in human T24 cells assessed as necrotic cells at 4 uM incubated for 24 hrs by Annexin-V/PI staining based flow cytometry analysis (reference value: 1.92 %); format: functional
T-24 [32] = test: Induction of mitochondrial mediated apoptosis in human T24 cells assessed as increase in Bak protein expression at 2 to 4 uM incubated for 24 hrs by Western blotting analysis; format: functional, cell-based; settings: dose 2-4 µM
T-24 [33] = test: Induction of apoptosis in human T24 cells assessed as increase in caspase 3 activity at 4 uM (Rvb= 3.1%); format: functional
T-24 [34] = test: Induction of mitochondrial membrane potential dysfunction in human T24 cells assessed as increase in fragmentation at 2 uM incubated for 24 hrs by TEM analysis; format: functional, cell-based
T-24 [35] = test: Induction of apoptosis in human T24 cells assessed as late apoptotic cells at 4 uM incubated for 24 hrs by Annexin-V/PI staining based flow cytometry analysis (reference value: 0.543 %); format: functional
T-24 [36] = test: Inhibition of colony formation in human T24 cells at 0.16 uM incubated for 24 hrs and measured for 10 days; format: functional, cell-based
T-24 [37] = test: Induction of mitochondrial mediated apoptosis in human T24 cells assessed as upregulation of cytochrome c expression at 2 to 4 uM incubated for 24 hrs by Western blotting analysis; format: functional, cell-based; settings: dose 2-4 µM
T-24 [38] = test: Induction of apoptosis in human T24 cells assessed as early apoptotic cells at 6 uM incubated for 24 hrs by Annexin-V/PI staining based flow cytometry analysis (reference value: 3.27 %); format: functional

With `O=C1c2ccccc2-c2cccc3ccnc1c23` the viability at 20 µM (T-24 [1]) was 56.2%, the Activity (T-24 [2]) was “Active” and the Activity (T-24 [3]) was “Active”. For the same compound, the Activity (T-24 [4]) was “Active”, the Activity (T-24 [5]) was “Active” and the Activity (T-24 [6]) was 54.86%. The Activity (T-24 [7]) was “Active”, the Activity (T-24 [8]) was 13.69% and the Activity (T-24 [9]) was 14.4%. For the same compound, the Activity (T-24 [10]) was “Active”, the Activity (T-24 [11]) was 32.9% and the Activity (T-24 [12]) was 19.9%. The Activity (T-24 [13]) was “Tde”, the Activity (T-24 [14]) was “Active” and the Activity (T-24 [15]) was “Active”.

With `O=C1c2ccccc2-c2ccc([N+](=O)[O-])c3ccnc1c23` the Activity (T-24 [16]) was 1.57%, the Activity (T-24 [17]) was “Tde” and the Activity (T-24 [18]) was “Active”. For the same compound, the Activity (T-24 [19]) was “Active”, the Activity (T-24 [20]) was 52.05% and the Activity [21] was “Non-Toxic”. The Activity (T-24 [22]) was “Active”, the Activity (T-24 [23]) was 38.8% and the Activity (T-24 [24]) was “Active”.

In the case of `O=C1c2cc([N+](=O)[O-])ccc2-c2ccc([N+](=O)[O-])c3ccnc1c23`, the Activity (T-24 [25]) is reported as “Active”, the Activity (T-24 [26]) is reported as “Active” and the Activity (T-24 [27]) is reported as “Active”. For the same compound, the Activity (T-24 [28]) was “Tde”, the Activity (T-24 [29]) was “Active” and the Activity [30] was “Non-Toxic”. For the same compound, the Activity (T-24 [31]) was 2.8%, the Activity (T-24 [32]) was “Active” and the Activity (T-24 [33]) was 28%. For the same compound, the Activity (T-24 [34]) was “Active”, the Activity (T-24 [35]) was 5.49% and the inhibition (T-24 [36]) was “Active”. The Activity (T-24 [37]) was “Active” and the Activity (T-24 [38]) was 36.2%.
